The test system of this assay is Bovine cardiac myofibrils. Briefly: In vitro model of dose-dependent myofibril ATPase modulation (AC1.4, pyruvate kinase/lactate dehydrogenase-coupled ATPase assay at pCa25). As to conditions: concentration at which ATPase activity was 1.4-fold higher than the bottom of the dose curve, mean of a minimum of two independent tests. The assay is classed as biochemical. In a few lines:
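We measure calcium-buffered ATPase activity of detergent-skinned bovine cardiac myofibrils at pH 6.80 and 22° C with 1 mM ATP, using a PK/LDH-coupled NADH readout at 340 nm. Values come from four-parameter dose-response fits, averaged over at least two independent runs.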
In the case of `C[C@@H](NC(=O)[C@H]1CCCN1C(=O)[C@H]1CCCN(S(=O)(=O)N2CC(C#N)C2)C1)c1ccc(C#N)cc1` [Example 540, 1-(((3S)-1-((3-cyano-1-azetidinyl)sulfonyl)-3-piperidinyl)carbonyl)-N-((1R)-1-(4-cyanophenyl)ethyl)-D-prolinamide], the AC1.4 worked out at 2.7885 µM.
With `N#CC1CN(S(=O)(=O)N2CC[C@H](C(=O)N3CCC[C@@H]3C(=O)NCc3ccc(C(F)(F)F)cc3)C2)C1` [Example 648, 1-(((3S)-1-((3-cyano-1-azetidinyl)sulfonyl)-3-pyrrolidinyl)carbonyl)-N-(4-(trifluoromethyl)benzyl)-D-prolinamide] the figure was 4.421 µM; with “1-(((3S)-1-(((6R)-6-hydroxy-2-azaspiro[3.4]oct-2-yl)sulfonyl)-3-piperidinyl)carbonyl)-N-(4-(trifluoromethyl)benzyl)-D-prolinamide,1-(((3S)-1-(((6S)-6-hydroxy-2-azaspiro[3.4]oct-2-yl)sulfonyl)-3-piperidinyl)carbonyl)-N-(4-(trifluoromethyl)benzyl)-D-prolinamide [Example 750]”, 7.331 µM; with `N#CC1CN(S(=O)(=O)N2CCC[C@H](C(=O)N3CCC[C@@H]3C(=O)NCc3ccc(Cl)c(F)c3)C2)C1` [Example 51, N-(4-chloro-3-fluorobenzyl)-1-(((3S)-1-((3-cyano-1-azetidinyl)sulfonyl)-3-piperidinyl)carbonyl)-D-prolinamide], 0.0553 µM.
Then `CCS(=O)(=O)c1cccc(C(=O)N2[C@@H](C(=O)N[C@H](C)c3cc(F)c(Cl)cc3F)C[C@H]3C[C@H]32)c1` [Example 513, (1R,3R,5R)-N-((1R)-1-(4-chloro-2,5-difluorophenyl)ethyl)-2-(3-(ethylsulfonyl)benzoyl)-2-azabicyclo[3.1.0]hexane-3-carboxamide], with 2.3655 µM; and `C[C@H](C(=O)N[C@H](C)c1ccc(Cl)cc1F)N(C)C(=O)[C@@H]1CN(S(=O)(=O)N2CC(C#N)C2)CCO1` [Example 419, (2S)-N-((2R)-1-(((1R)-1-(4-chloro-2-fluorophenyl)ethyl)amino)-l-oxo-2-propanyl)-4-((3-cyano-1-azetidinyl)sulfonyl)-N-methyl-2-morpholinecarboxamide], with 1.542 µM; and `N#CC1CN(S(=O)(=O)N2CCC[C@H](C(=O)N3CCC[C@@H]3C(=O)NCc3ccc(OC(F)F)cc3)C2)C1` [Example 435, 1-(((3S)-1-((3-cyano-1-azetidinyl)sulfonyl)-3-piperidinyl)carbonyl)-N-(4-(difluoromethoxy)benzyl)-D-prolinamide], with 1.681 µM.
Then `C[C@@]1(C(=O)N[C@@H](c2cc(F)c(C(F)(F)F)cc2F)C2CC2)CCN1C(=O)c1cccc(S(C)(=O)=O)c1` [Example 670, (2S)-N-((R)-cyclopropyl(2,5-difluoro-4-(trifluoromethyl)phenyl)methyl)-2-methyl-1-(3-(methylsulfonyl)benzoyl)-2-azetidinecarboxamide], with 4.735 µM; and `C[C@H](C(=O)N[C@H](C)c1ccc(C(F)(F)F)cc1F)N(C)C(=O)[C@@H]1CN(S(=O)(=O)N2CC(C#N)C2)CCO1` [Example 299, (2S)-4-((3-cyano-1-azetidinyl)sulfonyl)-N-((2R)-1-(((1R)-1-(2-fluoro-4-(trifluoromethyl)phenyl)ethyl)amino)-1-oxo-2-propanyl)-N-methyl-2-morpholinecarboxamide], with 0.7923 µM; and `O=C(NCc1ccc(C(F)(F)F)cc1)[C@H]1CCCN1C(=O)[C@H]1CCCN(S(=O)(=O)N2CC(Oc3ccc(Cl)cc3)C2)C1` [Example 424, 1-(((3S)-1-((3-(4-chlorophenoxy)-1-azetidinyl)sulfonyl)-3-piperidinyl)carbonyl)-N-(4-(trifluoromethyl)benzyl)-D-prolinamide], with 1.5805 µM.
`CC[C@H](NC(=O)[C@H]1CCCN1C(=O)c1cccc(S(=O)(=O)N2CC(C#N)C2)c1)c1ccc(C(F)(F)F)cc1` [Example 85, 1-(3-((3-cyano-1-azetidinyl)sulfonyl)benzoyl)-N-((1S)-1-(4-(trifluoromethyl)phenyl)propyl)-D-prolinamide] displayed an AC1.4 of 0.1157 µM.
With `Cc1ccc(Cl)c(CNC(=O)[C@H]2CCCN2C(=O)[C@H]2CCCN(S(=O)(=O)N3CC(C#N)C3)C2)c1` [Example 660, N-(2-chloro-5-methylbenzyl)-1-(((3S)-1-((3-cyano-1-azetidinyl)sulfonyl)-3-piperidinyl)carbonyl)-D-prolinamide] the figure was 4.606 µM.
The molecule `O=C(N[C@@H](c1cc(F)c(Cl)cc1F)C1COC1)[C@H]1C[C@H]2C[C@H]2N1C(=O)c1cncc(C(F)(F)F)c1` [Example 282, (1R,3R,5R)-N-((R)-(4-chloro-2,5-difluorophenyl)(3-oxetanyl)methyl)-2-((5-(trifluoromethyl)-3-pyridinyl)carbonyl)-2-azabicyclo[3.1.0]hexane-3-carboxamide] showed an AC1.4 of 0.7195 µM.
Then `N#CC1CN(S(=O)(=O)c2cccc(C(=O)N3CCC[C@@H]3C(=O)NCc3ccc(C(F)(F)F)cc3F)c2)C1` [Example 42, 1-((3-((3-cyano-1-azetidinyl)sulfonyl)phenyl)carbonyl)-N-(2-fluoro-4-(trifluoromethyl)benzyl)-D-prolinamide], with 0.04293 µM; and `C[C@@H](NC(=O)[C@H]1COCCN1C(=O)c1cccc(S(=O)(=O)N2CC(C#N)C2)c1)c1ccc(C(F)(F)F)cc1` [Example 19, (R)-4-(3-((3-cyanoazetidin-1-yl)sulfonyl)benzoyl)-N—((R)-1-(4-(trifluoromethyl)phenyl)ethyl)morpholine-3-carboxamide], with 0.02495 µM.
With `CS(=O)(=O)c1ccc(NC2CC2)c(C(=O)N2CCC[C@@H]2C(=O)N[C@@H](c2ccc(C(F)(F)F)cc2F)C2CC2)c1` [Example 26, 1-(2-(cyclopropylamino)-5-(methylsulfonyl)benzoyl)-N-((R)-cyclopropyl(2-fluoro-4-(trifluoromethyl)phenyl)methyl)-D-prolinamide] the figure was 0.0296 µM; with `CS(=O)(=O)c1cccc(C(=O)N2[C@@H](C(=O)N[C@@H](c3ccc(Cl)cc3F)C3CC3)C[C@H]3C[C@H]32)c1` [Example 344, (1R,3R,5R)-N-((R)-(4-chloro-2-fluorophenyl)(cyclopropyl)methyl)-2-(3-(methylsulfonyl)benzoyl)-2-azabicyclo[3.1.0]hexane-3-carboxamide], 0.9555 µM; with `CS(=O)(=O)c1cccc(C(=O)N2CC[C@@H](F)[C@@H]2C(=O)N[C@@H](c2ccc(C(F)(F)F)cc2)C2CC2)c1` [Example 756, (3R)-N-((R)-cyclopropyl(4-(trifluoromethyl)phenyl)methyl)-3-fluoro-1-(3-(methylsulfonyl)benzoyl)-D-prolinamide], 7.5875 µM.
As for `N#CC1CN(S(=O)(=O)N2CCC[C@H](C(=O)N3CC(F)(F)C[C@@H]3C(=O)NCc3ccc(C(F)(F)F)cc3)C2)C1` [Example 25, 1-(((3S)-1-((3-cyano-1-azetidinyl)sulfonyl)-3-piperidinyl)carbonyl)-4,4-difluoro-N-(4-(trifluoromethyl)benzyl)-D-prolinamide], the AC1.4 was found to be 0.0289 µM.
With `CS(=O)(=O)c1cccc(C(=O)N2CCC[C@@H]2C(=O)N[C@@H]2CCc3cc(C(F)(F)F)ccc32)c1` [Example 742, 1-(3-(methylsulfonyl)benzoyl)-N-((1R)-5-(trifluoromethyl)-2,3-dihydro-1H-inden-1-yl)-D-prolinamide] the figure was 7.2 µM.
On to `CS(=O)(=O)c1cccc(C(=O)N2CCC[C@@H]2C(=O)N[C@@H](c2ccc(Cl)c(F)c2)C2CC2)c1` [Example 426, N-((R)-(4-chloro-3-fluorophenyl)(cyclopropyl)methyl)-1-(3-(methylsulfonyl)benzoyl)-D-prolinamide], for which the AC1.4 was found to be 1.4595 µM.
With `COc1ccc(CNC(=O)[C@H]2CCCN2C(=O)[C@H]2CCCN(S(=O)(=O)N3CC(C#N)C3)C2)cc1F` [Example 457, 1-(((3S)-1-((3-cyano-1-azetidinyl)sulfonyl)-3-piperidinyl)carbonyl)-N-(3-fluoro-4-methoxybenzyl)-D-prolinamide] the figure was 1.8865 µM; with `O=C(NCc1ccc(C(F)(F)F)cc1F)[C@H]1CCCN1C(=O)[C@H]1CCCN(S(=O)(=O)N2CC(O)C2)C1` [Example 610, N-(2-fluoro-4-(trifluoromethyl)benzyl)-1-(((3S)-1-((3-hydroxy-1-azetidinyl)sulfonyl)-3-piperidinyl)carbonyl)-D-prolinamide], 3.7735 µM; with `CS(=O)(=O)c1cncc(C(=O)N2C[C@@H](F)C[C@@H]2C(=O)N[C@@H](c2cc(F)c(C(F)(F)F)cc2F)C2CC2)c1` [Example 430, (4S)-N-((R)-cyclopropyl(2,5-difluoro-4-(trifluoromethyl)phenyl)methyl)-4-fluoro-1-((5-(methylsulfonyl)-3-pyridinyl)carbonyl)-D-prolinamide], 1.474 µM.
Then `O=C(NCc1ccc(C(F)(F)F)cc1)[C@H]1CCCN1C(=O)[C@H]1CCCN(S(=O)(=O)N2CC(O)(c3ccccc3)C2)C1` [Example 371, 1-(((3S)-1-((3-hydroxy-3-phenyl-1-azetidinyl)sulfonyl)-3-piperidinyl)carbonyl)-N-(4-(trifluoromethyl)benzyl)-D-prolinamide], with 1.216 µM; and `O=C(N[C@@H](c1ccc(C(F)(F)F)cc1F)C1CC1)[C@H]1C[C@H]2C[C@H]2N1C(=O)c1cccc(C(O)C(F)(F)F)c1` (stereo partly drawn) [Example 547, (1R,3R,5R)-N-((R)-cyclopropyl(2-fluoro-4-(trifluoromethyl)phenyl)methyl)-2-(3-(2,2,2-trifluoro-1-hydroxyethyl)benzoyl)-2-azabicyclo[3.1.0]hexane-3-carboxamide], with 2.836 µM.

Source of the values: US11780826B2 (Amgen Inc., priority 2017, dated 2023).
